Reference: patent publication EP0408668B1 (MASSACHUSETTS INSTITUTE OF TECHNOLOGY, priority 1988, dated 1990)

Experiments:
[1] = test system: brain levels of cytidine and cytidine-(5')-diphosphate-choline (CDP-choline); conditions: rats, cytidine 1 g/kg ip, sacrificed after 1 hour, vs placebo
[2] = test system: neuroblastoma/glioma cells (NG 108-15); test: Formation of tritiated CDP-choline from tritiated choline in neuroblastoma/glioma cells; format: cell-based; conditions: NG 108-15 cells, cytidine 25 µM, 90 minutes
Text: CDP-choline is the immediate precursor for the phosphatidylcholine in membranes of neurons and other cells and its formation controls the production of phosphatidylcholine.

## Nc1ccn([C@@H]2O[C@H](CO)[C@@H](O)[C@H]2O)c(=O)n1 [cytidine]
[1]
  brain CDP-choline levels rose by: about 50%
[2]
  newly-formed CDP-choline in cells incubated with supplemental cytidine vs without cytidine: almost twice as much
